This test has as its target T1, Inhibitor of nuclear factor kappa-B kinase subunit beta (Homo sapiens, UniProt O14920).
T1 sequence (O14920 whole entry): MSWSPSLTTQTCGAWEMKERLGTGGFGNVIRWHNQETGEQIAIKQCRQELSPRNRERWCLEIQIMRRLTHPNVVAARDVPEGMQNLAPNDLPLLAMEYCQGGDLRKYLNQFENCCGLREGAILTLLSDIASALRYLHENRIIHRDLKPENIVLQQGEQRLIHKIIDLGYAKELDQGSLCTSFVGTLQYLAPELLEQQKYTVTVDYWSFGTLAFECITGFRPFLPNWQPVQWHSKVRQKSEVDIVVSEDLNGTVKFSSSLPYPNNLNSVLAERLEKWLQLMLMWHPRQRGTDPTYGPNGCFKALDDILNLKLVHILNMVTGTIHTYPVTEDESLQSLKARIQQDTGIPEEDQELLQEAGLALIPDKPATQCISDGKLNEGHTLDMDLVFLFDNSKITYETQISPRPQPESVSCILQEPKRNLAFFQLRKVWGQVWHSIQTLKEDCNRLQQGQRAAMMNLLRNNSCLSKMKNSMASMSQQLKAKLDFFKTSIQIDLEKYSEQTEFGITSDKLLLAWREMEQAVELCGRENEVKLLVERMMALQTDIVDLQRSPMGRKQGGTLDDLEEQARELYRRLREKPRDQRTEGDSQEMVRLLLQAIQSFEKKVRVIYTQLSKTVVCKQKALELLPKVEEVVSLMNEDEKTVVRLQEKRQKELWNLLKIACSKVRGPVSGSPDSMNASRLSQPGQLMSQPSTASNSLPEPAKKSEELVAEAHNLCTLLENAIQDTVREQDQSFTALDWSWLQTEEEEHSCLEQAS
As to the kind of experiment: ChEBML_1690031. The protocol:
Inhibition of recombinant full length human IKKbeta expressed in baculovirus infected sf9 insect cells using biotinylated IkBalpha as substrate after 60 mins by DELFIA

As usually defined, the Ki is a dissociation constant, usually derived from enzyme kinetics or from competition with a known ligand.

A value given as a limit tells only on which side of the number the result lay.

The molecule `N#Cc1c[nH]c2nc(N)nc(N[C@@H]3CC[C@@H](O)[C@H]3O)c12` displayed a Ki above 30 µM.

These data come from BindingDB's records for doi:10.1021/acs.jmedchem.7b00484 (University of Strathclyde, 2017).
